Active and inactive are the calls of the source. No cut-off for these calls is given here.
Columns and labels:
U-937 [1] = test: Induction of apoptosis in human U937 cells assessed as active 11 kDa fragment of caspase-3 at 250 uM after 24 hrs by Western blot analysis; type: functional, cell-based
U-937 [2] = test: Induction of apoptosis in human U937 cells assessed as PARP cleavage at 250 uM after 24 hrs by Western blot analysis; type: functional, cell-based
U-937 [3] = test: Induction of apoptosis in human U937 cells assessed as activation of caspase-3 at 250 uM after 24 hrs by colorimetric assay; type: functional, cell-based
U-937 [4] = test: Inhibition of clonogenic activity in human U937 cells assessed as reduction of colony formation in soft agar at 100 to 250 uM after 24 hrs using crystal violet staining; type: functional, cell-based
U-937 [5] = test: Cell cycle arrest in human U937 cells assessed as accumulation at sub-G0/G1 phase at 250 uM after 24 hrs using propidium iodide staining by FACS analysis; type: functional, cell-based
U-937 [6] = test: Cytotoxicity against human U937 cells after 48 hrs by trypan blue assay; type: functional; conditions: U-937, 48 h
U-937 [7] = test: Antiproliferative activity against human U937 cells assessed as incorporation of [3H]-methyl-thymidine after 12 hrs by scintillation counting; type: functional, cell-based
U-937 [8] = test: Induction of apoptosis in human U937 cells assessed as reduction of normal cells at 250 uM after 24 hrs by Annexin V-FITC double staining; type: functional, cell-based
[9] = Induction of free radicals production in carbonate buffer at pH 9 by electron spin resonance analysis; type: physicochemical
[10] = Induction of free radicals production in RPMI 1640 medium at pH 7.4 by electron spin resonance analysis; type: physicochemical
[11] = Pro-oxidant activity in 0.1 M potassium phosphate buffer at pH 7.4 assessed as increase of oxidation potential by cyclic voltammetry analysis; type: physicochemical
U-937 [12] = test: Induction of cell differentiation in human U937 cells assessed as increase of CD11b and CD14 expression at 500 uM after 72 hrs by FACS flow cytometer analysis; type: functional, cell-based
U-937 [13] = test: Induction of apoptosis in human U937 cells assessed as activation of caspase-3 at 500 uM after 24 hrs by colorimetric assay; type: functional, cell-based
U-937 [14] = test: Induction of apoptosis in human U937 cells assessed as phosphatidylserine expression in plasma membrane at 500 uM after 24 hrs by Annexin V-FITC double staining; type: functional, cell-based
PBMC = test: Cytotoxicity against human PBMC at 500 uM after 48 hrs by trypan blue assay; type: cell-based
Jurkat [15] = test: Induction of apoptosis in human Jurkat cells assessed as activation of caspase-3-mediated PARP cleavage at 500 uM after 24 hrs by colorimetric assay; type: functional, cell-based
U-937 [16] = test: Pro-oxidant activity in human U937 cells assessed as DCF-DA oxidation at 10 to 250 uM after 48 hrs by fluorescence assay; type: functional, cell-based
U-937 [17] = test: Induction of cell differentiation in human U937 cells assessed as increase of rhC5a-induced response at 500 uM after 72 hrs by FACS flow cytometer analysis; type: functional, cell-based
U-937 [18] = test: Induction of cell differentiation in human U937 cells assessed as increase of CD88 expression at 500 uM after 72 hrs by FACS flow cytometer analysis; type: functional, cell-based
U-937 [19] = test: Induction of apoptosis in human U937 cells assessed as activation of caspase-3 at 1000 uM after 48 hrs by colorimetric assay; type: functional, cell-based
U-937 [20] = test: Induction of apoptosis in human U937 cells assessed as reduction of normal cells at 1000 uM after 24 hrs by Annexin V-FITC double staining; type: functional, cell-based
U-937 [21] = test: Induction of apoptosis in human U937 cells assessed as phosphatidylserine expression in plasma membrane at 1000 uM after 24 hrs by Annexin V-FITC double staining; type: functional, cell-based
U-937 [22] = test: Induction of cell differentiation in human U937 cells assessed as increase of rhC5a-induced response at 250 to 500 uM after 72 hrs by FACS flow cytometer analysis; type: functional, cell-based
Jurkat [23] = test: Induction of apoptosis in human Jurkat cells assessed as activation of caspase-3 at 500 uM after 24 hrs by colorimetric assay; type: functional, cell-based
U-937 [24] = test: Induction of DNA damage in human U937 cells; type: functional, cell-based
Jurkat [25] = test: Cytotoxicity against human Jurkat at 250 uM after 48 hrs by trypan blue assay; type: functional, cell-based
Jurkat [26] = test: Induction of apoptosis in human Jurkat cells at 500 uM after 48 hrs by Annexin V-FITC double staining; type: functional, cell-based
U-937 [27] = test: Induction of cell differentiation in human U937 cells assessed as increase of CD88 expression at 250 to 500 uM after 72 hrs by FACS flow cytometer analysis; type: functional, cell-based
U-937 [28] = test: Induction of cell differentiation in human U937 cells assessed as increase of CD11b and CD14 expression at 250 to 500 uM after 72 hrs by FACS flow cytometer analysis; type: functional, cell-based

Row | SMILES | colony formation inhibition (active/not active) (U-937 [4]) | CC50 (U-937 [6]) | IC50 (U-937 [7]) | Activity [11] | Activity (U-937 [12]) | Activity (U-937 [13]) | also measured
1 | O=c1ccc2cc(O)c(O)cc2o1 [ESCULETIN] | Active | 108 µM | 143 µM | – | – | – | Activity (U-937 [1]): Active; Activity (U-937 [2]): Active; Activity (U-937 [3]): Active; Activity (U-937 [5]): Active; Activity (U-937 [8]): Active; Activity [9]: Active; Activity [10]: Active
2 | O=c1cccco1 | – | > 2000 µM | > 2000 µM | Not Active | Active | – | –
3 | Cc1cc(O)nc2cc(O)ccc12 | – | > 1000 µM | 259 µM | – | Active | inactive | –
4 | Cc1cc(C)oc(=O)c1 | – | > 2000 µM | > 2000 µM | Not Active | Active | – | –
5 | COc1cc2ccc(=O)oc2cc1O [SCOPOLETIN] | – | > 2000 µM | 976 µM | – | inactive | inactive | –
6 | COc1cc(C)oc(=O)c1 | – | > 2000 µM | > 2000 µM | Not Active | Active | – | –
7 | COc1ccc2c(C)cc(=O)oc2c1OC | inactive | > 2000 µM | 736 µM | Not Active | inactive | inactive | Activity (U-937 [14]): Active; Activity (PBMC): Non-toxic; Activity (Jurkat [15]): inactive; Activity (U-937 [16]): inactive; Activity (U-937 [17]): inactive; Activity (U-937 [18]): inactive
8 | Cc1cc(=O)oc2cc(O)cc(O)c12 [5,7-DIHYDROXY-4-METHYLCOUMARIN] | – | > 2000 µM | > 2000 µM | – | Active | inactive | –
9 | O=C(O)/C=C/c1ccc(O)c(O)c1 [CAFFEIC ACID] | inactive | > 2000 µM | 316 µM | – | – | – | Activity (U-937 [19]): inactive; Activity (U-937 [20]): inactive; Activity [9]: Active; Activity [10]: Active
10 | COc1cc2ccc(=O)oc2cc1OC [SCOPARONE] | – | 1290 µM | 590 µM | Not Active | – | inactive | –
11 | COc1cc2ccc(=O)oc2c(O)c1O [FRAXETIN] | Active | 70.2 µM | 143 µM | – | – | – | Activity (U-937 [1]): Active; Activity (U-937 [2]): Active; Activity (U-937 [3]): Active; Activity (U-937 [5]): Active; Activity (U-937 [8]): Active; Activity [9]: Active; Activity [10]: Active
12 | Cc1cc(=O)oc2cc(O)ccc12 [HYMECROMONE] | inactive | > 2000 µM | 711 µM | – | Active | inactive | Activity (U-937 [16]): inactive
13 | Cc1cc(O)cc(=O)o1 | – | > 2000 µM | > 2000 µM | Not Active | Active | – | –
14 | Cc1cc(=O)oc2ccc(O)cc12 | – | > 2000 µM | – | – | Active | inactive | –
15 | O=C(O)CCc1ccc(O)c(O)c1 [DIHYDROCAFFEIC ACID] | inactive | > 2000 µM | 213 µM | Active | – | – | Activity (U-937 [19]): inactive; Activity (U-937 [20]): inactive; Activity (U-937 [21]): Active; Activity (U-937 [22]): Active; Activity (Jurkat [23]): Active; Activity (U-937 [24]): inactive; Activity (Jurkat [25]): Active; Activity (Jurkat [26]): inactive; Activity (Jurkat [15]): Active; Activity (U-937 [16]): inactive; Activity [9]: Active; Activity [10]: Active; Activity (U-937 [27]): Active; Activity (U-937 [28]): Active
16 | CC(=O)c1c(O)ccc2c(C)cc(=O)oc12 | – | > 1000 µM | 454 µM | – | Active | inactive | –
17 | O=C(O)/C=C/c1ccc(O)cc1 [COUMARIC ACID] | – | > 2000 µM | > 2000 µM | – | inactive | – | –
18 | COc1ccc(CCC(=O)O)cc1OC | – | > 2000 µM | > 2000 µM | Active | inactive | – | Activity (PBMC): Non-toxic; Activity (Jurkat [15]): inactive; Activity (U-937 [16]): inactive; Activity (U-937 [17]): inactive; Activity (U-937 [18]): inactive
19 | COc1ccc(/C=C/C(=O)O)cc1OC | – | > 2000 µM | > 2000 µM | Active | – | – | –
20 | Cc1cc(=O)oc2cc(O)c(O)cc12 [4-METHYLESCULETIN] | Active | 76 µM | 97.4 µM | – | – | – | Activity (U-937 [1]): Active; Activity (U-937 [2]): Active; Activity (U-937 [3]): Active; Activity (U-937 [5]): Active; Activity (U-937 [8]): Active; Activity [9]: Active; Activity [10]: Active
21 | Cc1cc(=O)oc2cc(O)c(Cl)cc12 | – | 734 µM | 771 µM | – | inactive | inactive | –

— ChEMBL document CHEMBL2202983, “Structure-anti-leukemic activity relationship study of ortho-dihydroxycoumarins in U-937 cells: key role of the δ-lactone ring in determining differentiation-inducing potency and selective pro-apoptotic action” (Bioorg Med Chem, 2012)
